As a reminder, the IC50 is the concentration at which inhibition is half-maximal.

For the assay, the target named is Transitional endoplasmic reticulum ATPase (Homo sapiens, UniProt P55072). Put plainly: Inhibition of wild type human AAA ATPase p97 expressed in Escherichia coli measured by ADPGlo assay in presence of 100 uM ATP. On the technique in general: ADP-Glo turns the ADP formed in a reaction into a luminescent signal.
Chain of Transitional endoplasmic reticulum ATPase (P55072 whole entry): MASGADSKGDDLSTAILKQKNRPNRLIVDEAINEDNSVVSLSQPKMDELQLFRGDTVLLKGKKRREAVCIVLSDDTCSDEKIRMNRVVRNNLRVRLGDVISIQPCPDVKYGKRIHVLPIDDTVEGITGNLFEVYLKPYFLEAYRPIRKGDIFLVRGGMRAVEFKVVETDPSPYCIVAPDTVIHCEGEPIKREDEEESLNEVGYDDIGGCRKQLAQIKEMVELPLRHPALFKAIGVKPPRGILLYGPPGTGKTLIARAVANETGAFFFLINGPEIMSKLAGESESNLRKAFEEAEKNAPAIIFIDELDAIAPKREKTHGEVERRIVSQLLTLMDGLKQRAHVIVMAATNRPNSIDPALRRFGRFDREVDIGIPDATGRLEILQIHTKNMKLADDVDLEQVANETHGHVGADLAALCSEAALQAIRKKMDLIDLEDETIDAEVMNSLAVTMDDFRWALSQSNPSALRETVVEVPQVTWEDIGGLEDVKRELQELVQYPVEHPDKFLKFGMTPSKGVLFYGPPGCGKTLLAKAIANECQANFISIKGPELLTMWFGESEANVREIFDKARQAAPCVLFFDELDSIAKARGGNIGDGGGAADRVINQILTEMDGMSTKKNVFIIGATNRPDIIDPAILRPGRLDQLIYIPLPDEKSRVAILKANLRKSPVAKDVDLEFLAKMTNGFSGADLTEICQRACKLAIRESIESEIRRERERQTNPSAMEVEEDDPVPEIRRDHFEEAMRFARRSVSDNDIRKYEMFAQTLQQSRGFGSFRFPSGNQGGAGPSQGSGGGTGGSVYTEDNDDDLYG
On to `Cc1ccc2[nH]c(-c3cccc(N4CCC(NCCN5CCN(C(C)C)CC5)CC4)c3)cc2c1`, for which the concentration for half-maximal inhibition (IC50) came out at 240 nM.
Turning to `CC(C)N1CCN(CCNC2CCN(c3cccc(-c4cc5cc(C(F)(F)F)ccc5[nH]4)c3)CC2)CC1`, the IC50 is 4700 nM.
The same measure for `CC(C)N1CCN(CCNC2CCN(c3cccc(-c4cc5cc(OC(F)(F)F)ccc5[nH]4)c3)CC2)CC1`: 3800 nM; for `CC(C)N1CCN(CCNC2CCN(c3cccc(-c4cc5cc([N+](=O)[O-])ccc5[nH]4)c3)CC2)CC1`: 50 nM.
Regarding `CC(C)N1CCN(CCNC2CCN(c3cccc(-c4cc5cc(S(F)(F)(F)(F)F)ccc5[nH]4)c3)CC2)CC1`, the IC50 is 21500 nM.
The same measure for `COc1ccc2[nH]c(-c3cccc(N4CCC(NCCN5CCN(C(C)C)CC5)CC4)c3)cc2c1`: 710 nM.

(Values after ChEMBL document CHEMBL3785079, “Structure-Activity Study of Bioisosteric Trifluoromethyl and Pentafluorosulfanyl Indole Inhibitors of the AAA ATPase p97” (ACS Med Chem Lett, 2015).)
